Test results reported in ChEMBL document CHEMBL5647694, “Novel orally bioavailable EZH1/2 dual inhibitors with greater antitumor efficacy than an EZH2 selective inhibitor” (Cancer Sci, 2017).

How the values were obtained:
[1] = Toxicity in Crl:CD Sprague-Dawley rat assessed as decrease in body weight at 100 mg/kg, po administered daily for 14 days; format: organism-based; settings: in vivo, 336 h, time 14 day
KARPAS-422 = assay: Antitumor activity against human KARPAS-422 cells xenografted in CB17/Icr-Prkdcscid/CrlCrlj mouse assessed as inhibition of tumor growth administered orally BID for 14 days; format: functional, cell-based; settings: dose 3.1-50 mg/kg, route po, time 14.0 day
[2] = Toxicity in Crl:CD Sprague-Dawley rat assessed as calcium level in blood at 100 mg/kg, po administered daily for 14 days (reference value: 10.1 +/-0.096 mg/dL); format: organism-based; settings: in vivo, 336 h, time 14 day
[3] = AUC (0 to 24 hrs) in BALB/c mouse at 6.3 mg/kg administered as single dose; format: ADME, organism-based; settings: in vivo, route po
[4] = Toxicity in Crl:CD Sprague-Dawley rat assessed as sodium level in blood at 100 mg/kg, po administered daily for 14 days (reference value: 141+/-0.82 mEq/L); format: organism-based; settings: in vivo, 336 h, time 14 day
[5] = Cmax in Crl:CD Sprague-Dawley rat at 100 mg/kg, po administered daily for 14 days by LC/MS/MS analysis; format: ADME, organism-based; settings: in vivo, 336 h, time 14 day
CCRF-CEM = assay: Antitumor activity against human CCRF-CEM cells assessed as cell growth inhibition treated for 10 to 15 days; format: functional; settings: time 10-15 day
Z-138 = assay: Antitumor activity against human Z138 cells assessed as cell growth inhibition treated for 10 to 15 days; format: functional; settings: time 10-15 day
[6] = target: Histone-lysine N-methyltransferase, H3 lysine-79 specific (Homo sapiens, UniProt Q8TEK3); assay: Inhibition of human DOT1L using Nucleosomes and [3H]SAM as substrate incubated for 30 mins to 1 hr by HotSpot kinase assay
Histone-lysine N-methyltransferase, H3 lysine-79 specific, sequence (Q8TEK3 whole entry): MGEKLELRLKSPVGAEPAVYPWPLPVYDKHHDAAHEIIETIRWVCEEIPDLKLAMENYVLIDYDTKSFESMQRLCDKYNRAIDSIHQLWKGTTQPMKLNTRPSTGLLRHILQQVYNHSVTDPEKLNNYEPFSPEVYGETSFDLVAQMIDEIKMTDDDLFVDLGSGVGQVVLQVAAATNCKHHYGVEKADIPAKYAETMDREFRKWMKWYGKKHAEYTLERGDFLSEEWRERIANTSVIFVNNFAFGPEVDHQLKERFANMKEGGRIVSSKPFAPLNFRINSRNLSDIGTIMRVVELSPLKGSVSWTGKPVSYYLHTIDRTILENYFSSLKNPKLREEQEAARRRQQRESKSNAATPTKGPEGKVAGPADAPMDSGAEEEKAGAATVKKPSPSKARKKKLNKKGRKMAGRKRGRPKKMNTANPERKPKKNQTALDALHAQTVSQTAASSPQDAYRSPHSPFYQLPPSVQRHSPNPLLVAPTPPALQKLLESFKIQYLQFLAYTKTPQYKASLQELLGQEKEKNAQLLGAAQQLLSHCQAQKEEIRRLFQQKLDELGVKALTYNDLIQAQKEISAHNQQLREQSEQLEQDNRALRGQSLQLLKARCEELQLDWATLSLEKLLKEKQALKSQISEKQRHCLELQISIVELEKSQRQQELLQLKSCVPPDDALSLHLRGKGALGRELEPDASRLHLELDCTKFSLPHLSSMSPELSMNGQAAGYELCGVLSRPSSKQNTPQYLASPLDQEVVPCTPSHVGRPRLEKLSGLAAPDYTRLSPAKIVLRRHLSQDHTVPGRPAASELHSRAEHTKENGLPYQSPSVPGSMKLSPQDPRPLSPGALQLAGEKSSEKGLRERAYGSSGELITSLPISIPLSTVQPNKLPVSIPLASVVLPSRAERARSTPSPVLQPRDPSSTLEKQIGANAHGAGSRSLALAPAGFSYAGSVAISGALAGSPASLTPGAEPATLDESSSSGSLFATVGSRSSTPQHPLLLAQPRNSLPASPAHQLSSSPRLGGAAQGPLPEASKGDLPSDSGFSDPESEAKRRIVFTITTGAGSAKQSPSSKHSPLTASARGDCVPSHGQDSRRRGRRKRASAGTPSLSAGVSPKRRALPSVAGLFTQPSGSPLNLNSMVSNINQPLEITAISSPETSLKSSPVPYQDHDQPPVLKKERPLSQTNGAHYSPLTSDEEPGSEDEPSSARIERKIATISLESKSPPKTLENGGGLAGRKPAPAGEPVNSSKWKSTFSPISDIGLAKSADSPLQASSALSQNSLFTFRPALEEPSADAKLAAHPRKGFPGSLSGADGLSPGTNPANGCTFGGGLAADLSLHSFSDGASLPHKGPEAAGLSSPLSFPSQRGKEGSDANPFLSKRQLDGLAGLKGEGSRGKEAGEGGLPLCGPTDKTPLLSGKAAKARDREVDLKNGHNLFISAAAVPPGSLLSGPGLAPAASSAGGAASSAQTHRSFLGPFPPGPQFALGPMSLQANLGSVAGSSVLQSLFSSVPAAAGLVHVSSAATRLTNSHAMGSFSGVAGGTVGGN

MC-CAR = assay: Antitumor activity against human MC-CAR cells assessed as cell growth inhibition treated for 10 to 15 days; format: functional; settings: time 10-15 day
[7] = Antitumor activity against human NCI-H660 cells assessed as cell growth inhibition treated for 10 to 15 days; format: functional; settings: time 10-15 day
[8] = Antitumor activity against human HuT 102 cells assessed as cell growth inhibition treated for 10 to 15 days; format: functional; settings: time 10-15 day
Toledo = assay: Antitumor activity against human Toledo cells assessed as cell growth inhibition treated for 10 to 15 days; format: functional; settings: time 10-15 day
ZR-75-30 = assay: Antitumor activity against human ZR-75-30 cells assessed as cell growth inhibition treated for 10 to 15 days; format: functional; settings: time 10-15 day
Caov-3 cell line = assay: Antitumor activity against human Caov-3 cell line assessed as cell growth inhibition treated for 10 to 15 days; format: functional; settings: time 10-15 day
[9] = Antitumor activity against human CADO-ES1 cells assessed as cell growth inhibition treated for 10 to 15 days; format: functional; settings: time 10-15 day
[10] = Antitumor activity against human OVISE cells assessed as cell growth inhibition treated for 10 to 15 days; format: functional; settings: time 10-15 day
ECC10 = assay: Antitumor activity against human ECC10 cells assessed as cell growth inhibition treated for 10 to 15 days; format: functional; settings: time 10-15 day
TGBC11TKB = assay: Antitumor activity against human TGBC11TKB cells assessed as cell growth inhibition treated for 10 to 15 days; format: functional; settings: time 10-15 day
[11] = target: Histone-lysine N-methyltransferase EHMT1 (Homo sapiens, UniProt Q9H9B1); assay: Inhibition of human GLP using Histone H3 (1-21 residues) and [3H]SAM as substrate incubated for 30 mins to 1 hr by HotSpot kinase assay
Histone-lysine N-methyltransferase EHMT1, sequence (Q9H9B1 whole entry, the tested form may be a part): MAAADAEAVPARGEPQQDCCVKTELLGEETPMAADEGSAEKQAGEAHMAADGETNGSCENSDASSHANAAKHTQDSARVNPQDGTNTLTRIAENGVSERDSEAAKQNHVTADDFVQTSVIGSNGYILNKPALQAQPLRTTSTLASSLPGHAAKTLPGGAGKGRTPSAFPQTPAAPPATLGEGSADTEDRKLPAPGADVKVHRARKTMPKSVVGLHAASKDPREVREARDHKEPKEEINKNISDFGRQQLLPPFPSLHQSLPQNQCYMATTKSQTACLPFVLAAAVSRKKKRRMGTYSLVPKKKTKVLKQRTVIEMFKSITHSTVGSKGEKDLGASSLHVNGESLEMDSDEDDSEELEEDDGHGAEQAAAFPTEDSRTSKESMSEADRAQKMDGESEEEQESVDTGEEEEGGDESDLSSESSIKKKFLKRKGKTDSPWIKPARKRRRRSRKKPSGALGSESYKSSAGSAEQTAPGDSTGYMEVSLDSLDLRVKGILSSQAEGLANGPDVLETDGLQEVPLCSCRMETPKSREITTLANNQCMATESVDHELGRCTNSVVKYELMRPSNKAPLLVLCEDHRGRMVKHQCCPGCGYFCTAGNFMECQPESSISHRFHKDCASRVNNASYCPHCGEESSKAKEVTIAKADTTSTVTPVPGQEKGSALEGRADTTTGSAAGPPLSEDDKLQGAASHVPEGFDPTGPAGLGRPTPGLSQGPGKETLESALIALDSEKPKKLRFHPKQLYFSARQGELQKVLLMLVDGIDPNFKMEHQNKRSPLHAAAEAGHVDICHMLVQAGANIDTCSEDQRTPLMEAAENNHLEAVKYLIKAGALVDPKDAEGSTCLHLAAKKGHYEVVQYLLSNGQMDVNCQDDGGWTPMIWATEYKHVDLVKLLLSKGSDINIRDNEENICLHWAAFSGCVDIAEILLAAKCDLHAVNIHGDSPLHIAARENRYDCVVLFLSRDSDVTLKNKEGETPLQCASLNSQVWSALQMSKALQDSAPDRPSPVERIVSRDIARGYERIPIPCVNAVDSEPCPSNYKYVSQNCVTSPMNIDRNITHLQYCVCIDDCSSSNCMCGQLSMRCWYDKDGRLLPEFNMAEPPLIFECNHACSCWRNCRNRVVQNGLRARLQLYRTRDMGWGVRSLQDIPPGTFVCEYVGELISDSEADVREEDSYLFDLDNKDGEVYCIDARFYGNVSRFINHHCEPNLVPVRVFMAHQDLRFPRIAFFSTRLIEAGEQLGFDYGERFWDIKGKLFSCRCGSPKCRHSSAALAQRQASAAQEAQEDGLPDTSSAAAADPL

[12] = target: CDK7/Cyclin H/MNAT1 (Homo sapiens) (UniProt P51946+P50613+P51948); assay: Inhibition of N-terminal GST-tagged full length human CDK7 (1 to 346 residues)/human CyclinH (1 to 323 residues)/human MAT1 (1 to 309 residues) expressed in baculovirus-infected Sf21 cells using CTD3 peptide as substrate at 1 uM in presence of ATP by Mobility shift assay
SK-ES1 = assay: Antitumor activity against human SK-ES1 cells assessed as cell growth inhibition treated for 10 to 15 days; format: functional; settings: time 10-15 day
U-266 = assay: Antitumor activity against human U266B1 cells assessed as cell growth inhibition treated for 10 to 15 days; format: functional; settings: time 10-15 day
P3HR-1 = assay: Antitumor activity against human P3HR-1 cells assessed as cell growth inhibition treated for 10 to 15 days; format: functional; settings: time 10-15 day
Pfeiffer = assay: Antitumor activity against human Pfeiffer cells assessed as cell growth inhibition treated for 10 to 15 days; format: functional; settings: time 10-15 day
[13] = Antitumor activity against human HCC1500 cells assessed as cell growth inhibition treated for 10 to 15 days; format: functional; settings: time 10-15 day
NALM-6 = assay: Antitumor activity against human NALM-6 cells assessed as cell growth inhibition treated for 10 to 15 days; format: functional; settings: time 10-15 day

SMILES: Cc1cc(C)c(CNC(=O)c2cc(Br)c3c(c2C)O[C@@](C)([C@H]2CC[C@H](N(C)C)CC2)O3)c(=O)[nH]1
- Activity [1]: Toxic
- Activity (KARPAS-422): Dose-Dependent Effect
- Activity [2]: 9.88 mg/dL
- AUC(0-t) [3]: 1.6 µM·h
- Activity [4]: 142 mEq/L
- Cmax [5]: 2440 nM

SMILES: Cc1cc(C)c(CNC(=O)c2cc(Cl)c3c(c2C)O[C@@](C)([C@H]2CC[C@H](N(C)C)CC2)O3)c(=O)[nH]1 [VALEMETOSTAT]
- GI50 (CCRF-CEM): > 1000 nM
- GI50 (Z-138): 19.1 nM
- IC50 [6]: 100000 nM
- GI50 (MC-CAR): 31.3 nM
- GI50 [7]: > 1000 nM
- GI50 [8]: 0.987 nM
- GI50 (Toledo): > 1000 nM
- GI50 (ZR-75-30): > 1000 nM
- GI50 (Caov-3 cell line): > 1000 nM
- GI50 [9]: 952 nM
- GI50 [10]: > 1000 nM
- GI50 (ECC10): 84.5 nM
- GI50 (TGBC11TKB): 86.7 nM
- IC50 [11]: 100000 nM
- inhibition [12]: -6.7%
- GI50 (SK-ES1): > 1000 nM
- GI50 (U-266): 6.88 nM
- GI50 (P3HR-1): 14.3 nM
- GI50 (Pfeiffer): 0.107 nM
- GI50 [13]: 21 nM
- GI50 (NALM-6): > 1000 nM
